Reference: patent US20240246918A1, “COMPOUNDS AND COMPOSITIONS AS EIF4E INHIBITORS AND THE USES THEREOF” (Ribometrix, Inc., priority 2022, published 2024)

Tests used:
[1] = molecular target: T1, human eIF4E protein (Homo sapiens, UniProt P06730); test: Biochemical competitive binding assay (TR-FRET competition, EDA-m7GDP-ATTO-647N probe); conditions: read-out: hEIF4E TR-FRET IC50
T1 construct: purchased Novus NBP-45314
Method: The potencies of compounds binding to human eIF4E protein were measured using a 384-well time-resolved fluorescence resonance energy transfer (TR-FRET) competition assay. The assay was performed in assay buffer containing 50 mM HTEPES pH 7.5, 100 mM KCl, 0.02% Tween-20, and 0.1 mg/mL bovine serum albumin (BSA). The reaction volume was 10 μL and each reaction contained 4 nM recombinant 6×HIS-tagged human EIF4E protein (Novus, NBP-45314), 5 nM EDA-m7GDP-ATTO-647N (Jena Bioscience, NU-827-647N), 2.5 nM Europium conjugated Anti-6×HIS antibody (PerkinElmer, AD0402) and varying concentrations of compound. The final DMSO concentration was […].
Compounds were prepared using 11-point, 4-fold serial dilutions in DMSO and 100 nL of diluted compounds were transferred to 384-well assay-ready plates. Recombinant human EIF4E protein at 2× final concentration (8 nM) was pre-incubated with Eu-anti-6×HIS antibody at 2× final concentration (5 nM) for 5 minutes, then 5 μL of the protein solution was added to assay-ready plates. The protein/compound mix was incubated for 15 minutes, after which 5 μL of a solution containing EDA-m7GDP-ATTO-647N probe at 2× final concentration (10 nM) was added. After a subsequent 15-minute incubation, time-resolved fluorescence of assay plates was measured using a Clariostar Plus microplate reader (BMG Labtech) and TR-FRET values were calculated by taking a ratio of the 665 to 620 wavelength signals. After normalization to the average of DMSO control and maximum inhibition control wells, concentration-response data were plotted and standard 4-parameter curve fitting (PEI Signals) was utilized to determine IC50 values.

[2] = tested on: COLO 205 colorectal tumor cells; test: Tumor cell viability inhibition assay (CellTiter-Glo 2.0, 72 hours); type: cell-based; conditions: COLO 205 cell viability
Method: The effect of compound treatment on COLO 205 tumor cell viability was assessed using cellular ATP quantification methods (Promega CellTiter-Glo® 2.0, G9241), as follows. Test compounds were prepared using 11-point, 4-fold serial dilutions in DMSO and 100 nL of diluted compounds were transferred to 384-well assay-ready plates. COLO 205 (ATCC, CCL-222) colorectal tumor cells were seeded to assay-ready plates in RPMI-1640 medium supplemented with 10% FBS at 1500 cells in a volume of 33.5 microliters per well. After 72 hours of compound treatment, cellular ATP was assessed by CellTiter-Glo® 2.0 Cell Viability Assay method, according to the manufacturer's instructions. Luminescence was measured using a Clariostar Plus microplate reader (BMG Labtech) or equivalent. After normalization to the average of DMSO control and maximum inhibition control wells, concentration-response data were plotted and standard 4-parameter curve fitting (PEI Signals) was utilized to determine IC50

T1 sequence (P06730 whole entry): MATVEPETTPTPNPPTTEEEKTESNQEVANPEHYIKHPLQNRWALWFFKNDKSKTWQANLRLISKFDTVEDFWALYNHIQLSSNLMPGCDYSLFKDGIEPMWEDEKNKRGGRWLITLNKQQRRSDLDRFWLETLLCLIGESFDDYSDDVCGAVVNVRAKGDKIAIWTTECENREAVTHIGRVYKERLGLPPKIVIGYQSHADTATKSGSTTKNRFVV

Row | SMILES | IC50 [1] [nM] | IC50 [2] [µM] | IC50 ([2]; Homo sapiens, COLO 205, 72 h) [µM]
1 | Cc1cc(-c2cc(Cl)ccc2OCCn2c(C)nc3c(c2=O)CC(N(C)Cc2ccc(=O)[nH]c2)CC3)c2scc(C(=O)O)c2n1 (single isomer, unassigned) [Compound 236] | < 100 | > 20 | 
2 | Cc1cc(-c2cc(Cl)ccc2OCCn2c(C)nc3c(c2=O)C[C@](C)(N2CCC[C@]4(C2)CC4(F)F)CC3)c2scc(C(=O)O)c2n1 (single isomer, unassigned) [Compound 553] | < 100 |  | < 5
3 | Cc1cc(-c2cc(Cl)c(=O)[nH]c2OCCn2c(C)nc3c(c2=O)CC(N(C)CC2CC(F)(F)C2)CC3)c2scc(C(=O)O)c2n1 (single isomer, unassigned) [Compound 238] | 500 to 5000 | > 20 | 
4 | Cc1cc(-c2cc(Cl)ccc2OCCn2c(C)nc3c(c2=O)C[C@H](N2CCC4(CC2)CC4(F)F)CC32CC2)c2scc(C(=O)O)c2n1 (single isomer, unassigned) [Compound 564] | < 100 |  | < 5
5 | COC1CCN(C2(C)CCc3nc(C)n(CCOc4ccc(Cl)cc4-c4cc(C)nc5c(C(=O)O)csc45)c(=O)c3C2)CC1(C)C (single isomer, unassigned) [Compound 559] | 100 to 500 |  | 5 to 20
6 | CCN(Cc1ccnc(OC)c1)C1CCc2nc(C)n(CCOc3ccc(Cl)cc3-c3cc(C)nc4c(C(=O)O)csc34)c(=O)c2C1 (centres unmarked) [Compound 129] | < 100 |  | < 5
7 | Cc1nc2c(c(=O)n1CC#Cc1ccc(Cl)cc1-c1ccnc3c(C(=O)O)csc13)C[C@@H](N1CCC[C@@]3(C1)CC3(F)F)CC2 (single isomer, unassigned) [Compound 538, 7-(5-chloro-2-(3-(6-(1,1-difluoro-5-azaspiro[2.5]octan-5-yl)-2-methyl-4-oxo-5,6,7,8-tetrahydroquinazolin-3(4H)-yl)prop-1-yn-1-yl)phenyl)thieno[3,2-b]pyridine-3-carboxylic acid] | < 100 |  | < 5
8 | Cc1cc(-c2cc(Cl)ccc2OCCn2c(C)nc3c(c2=O)C[C@@H](NC24CC5CC(CC(C5)C2)C4)CC3)c2scc(C(=O)O)c2n1 (single isomer, unassigned) [Compound 413] | < 100 |  | 5 to 20
9 | Cc1cc(-c2cc(Cl)ccc2OCCn2c(C)nc3c(c2=O)CC(N2CCC(OC(F)(F)F)CC2)CC3(C)C)c2scc(C(=O)O)c2n1 (single isomer, unassigned) [Compound 442, 7-(5-chloro-2-(2-(2,8,8-trimethyl-4-oxo-6-(4-(trifluoromethoxy)piperidin-1-yl)-5,6,7,8-tetrahydroquinazolin-3(4H)-yl)ethoxy)phenyl)-5-methylthieno[3,2-b]pyridine-3-carboxylic acid] | < 100 |  | 5 to 20
10 | Cc1cc(-c2cc(Cl)ccc2OCCn2c(C)nc3c(c2=O)C[C@H](N2CCC(COC(F)(F)F)CC2)CC32CC2)c2scc(C(=O)O)c2n1 (single isomer, unassigned) [Compound 560] | < 100 |  | < 5
11 | Cc1cc(-c2cc(Cl)ccc2OCCn2c(C)nc3c(c2=O)CC(N2CCC(OC(F)(F)F)CC2)CC3)c2scc(C(=O)NS(=O)(=O)C(F)(F)F)c2n1 (single isomer, unassigned) [Compound 459] | < 100 |  | 5 to 20
12 | Cc1cc(-c2cc(Cl)ccc2OCCn2c(C)nc3c(c2=O)C[C@H](N2CCC[C@]4(C2)CC4(F)F)CC3(C)C)c2scc(C(=O)O)c2n1 (single isomer, unassigned) [Compound 438] | < 100 |  | < 5
13 | COC1(C(F)(F)F)CC2CCC(C1)N2[C@H]1CCc2nc(C)n(CCOc3ccc(Cl)cc3-c3cc(C)nc4c(C(=O)O)csc34)c(=O)c2C1 (single isomer, unassigned) [Compound 503] | 100 to 500 |  | 5 to 20

Continued, values first:

Row | IC50 [1] [nM] | IC50 [2] [µM] | IC50 ([2]; Homo sapiens, COLO 205, 72 h) [µM] | SMILES
14 | < 100 |  | < 5 | COC1(C)CCN(C2CCc3nc(C)n(CCOc4ccc(Cl)cc4-c4cc(C)nc5c(C(=O)O)csc45)c(=O)c3C2)CC1 (centres unmarked) [Compound 134]
15 | < 100 |  | < 5 | Cc1csc([C@H]2CCCN([C@@H]3CCc4nc(C)n(CCOc5ccc(Cl)cc5-c5cc(C)nc6c(C(=O)O)csc56)c(=O)c4C3)C2)n1 (single isomer, unassigned) [Compound 483]
16 | < 100 |  | 5 to 20 | Cc1cc(-c2cc(Cl)ccc2OCCn2c(C)nc3c(c2=O)C[C@H](N2CCCC[C@H]2C)CC3)c2scc(C(=O)O)c2n1 (single isomer, unassigned) [Compound 408]
17 | < 100 |  | < 5 | Cc1cc(-c2cc(Cl)ccc2OCCn2c(C)nc3c(c2=O)C[C@H](N2CCO[C@@H](COC(F)(F)F)C2)CC3)c2scc(C(=O)O)c2n1 (single isomer, unassigned) [Compound 477]
18 | < 100 |  | < 5 | Cc1cc(-c2cc(Cl)ccc2OCCn2c(C)nc3c(c2=O)C[C@H](N2CCCC[C@H]2c2nccs2)CC3)c2scc(C(=O)O)c2n1 (single isomer, unassigned) [Compound 546]
19 | < 100 |  | < 5 | Cc1cc(-c2cc(Cl)ccc2OCCn2c(C)nc3c(c2=O)C[C@@H](N2CC[C@H](C(F)F)C2)CC3)c2scc(C(=O)O)c2n1 (single isomer, unassigned) [Compound 113]
20 | < 100 |  | < 5 | Cc1cc(-c2cc(Cl)ccc2OCCn2c(C)nc3c(c2=O)C[C@@H](N2CCC(c4nc(C(F)(F)F)cs4)CC2)CC3)c2scc(C(=O)O)c2n1 (single isomer, unassigned) [Compound 578]
21 | 500 to 5000 | > 20 |  | Cc1cc(-c2cc(Cl)ccc2OCCn2c(C(F)(F)F)nc3c(c2=O)CC(N2CCC(OC(F)(F)F)CC2)CC3)c2scc(C(=O)O)c2n1 (single isomer, unassigned) [Compound 631]
22 | < 100 |  | 5 to 20 | Cc1cc(-c2cc(Cl)ccc2OCCn2c(C)nc3c(c2=O)C[C@@H](N2CC[C@H](OC(F)(F)F)C(F)(F)C2)CC3)c2scc(C(=O)O)c2n1 (single isomer, unassigned) [Compound 406]
23 | < 100 |  | < 5 | Cc1cc(-c2cc(Cl)ccc2OCCn2c(C)nc3c(c2=O)C[C@H](N2CCC(O)CC2)CC3)c2scc(C(=O)O)c2n1 (single isomer, unassigned) [Compound 434]
24 | < 100 |  | < 5 | CO[C@H]1CCN([C@@H]2CCc3nc(C)n(CCOc4ccc(Cl)cc4-c4cc(C)nc5c(C(=O)O)csc45)c(=O)c3C2)CC1(C)C (single isomer, unassigned) [Compound 415]
25 | < 100 |  | < 5 | COC1(C(F)(F)F)CCN([C@H]2CCc3nc(C)n(CCOc4ccc(Cl)cc4-c4cc(C)nc5c(C(=O)O)csc45)c(=O)c3C2)CC1 (single isomer, unassigned) [Compound 451]
26 | < 100 |  | < 5 | CO[C@@H](C1CCN([C@@H]2CCc3nc(C)n(CCOc4ccc(Cl)cc4-c4cc(C)nc5c(C(=O)O)csc45)c(=O)c3C2)CC1)C(F)(F)F (single isomer, unassigned) [Compound 551]
27 | < 100 |  | 5 to 20 | Cc1cc(-c2cc(Cl)ccc2OCCn2c(C)nc3c(c2=O)C[C@@H](N2CC[C@@H](OC(F)(F)F)C(F)(F)C2)CC3)c2scc(C(=O)O)c2n1 (single isomer, unassigned) [Compound 405]
28 | < 100 | > 20 |  | Cc1cc(-c2cc(Cl)ccc2OCCn2c(C)nc3c(c2=O)CC(N2CCC4(CC2)CNCCO4)CC3)c2scc(C(=O)O)c2n1 (single isomer, unassigned) [Compound 528]
29 | < 100 |  | < 5 | Cc1cc(-c2cc(Cl)ccc2OCCn2c(C)nc3c(c2=O)C[C@H](N2CCC4(CC2)COCCO4)CC3)c2scc(C(=O)O)c2n1 (single isomer, unassigned) [Compound 424]
30 | < 100 |  | 5 to 20 | Cc1cc(-c2cc(Cl)ccc2OCCn2c(C)nc3c(c2=O)C[C@@H](N2CCCC[C@H]2C)CC3)c2scc(C(=O)O)c2n1 (single isomer, unassigned) [Compound 437]
31 | < 100 |  | < 5 | Cc1cc(-c2cc(Cl)ccc2OCCn2c(C)nc3c(c2=O)C[C@@H](N2CCC(c4ncn(C)n4)CC2)CC3)c2scc(C(=O)O)c2n1 (single isomer, unassigned) [Compound 463]
